Columns and labels:
[1] = test system: P. falciparum K1 strain (Thailand resistant to chloroquine); assay: semiautomated microdilution assay, [3H]-hypoxanthine incorporation, K1 strain; assay type: cell-based, Plasmodium falciparum; settings: K1 strain, 72 h incubation
Outline: (§1)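 Asynchronous stock cultures → intraerythrocytic forms; semiautomated microdilution; IC50 by logit regression.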

[2] = test system: ANKA strain of P. berghei; assay: single dose STI in vivo screen in infected mice; set-up: species or system Plasmodium berghei
Outline: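 Groups of 3-5 Moro SPF or NMRI mice infected with the ANKA strain of P. berghei received a single dose of trioxolane on day one post-infection. The compound was given in 3% ethanol and 7% Tween 80 or in SSV (0.5% w/v CMC, 0.5% v/v benzyl alcohol, 0.4% v/v Tween 80, 0.9% w/v sodium chloride in water). Antimalarial activity was scored as percent reduction in parasitemia on day three and as survival time versus untreated controls. Survival to day 30 counted as cure.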

Schistosoma japonicum = assay: effect in mice infected with Schistosoma japonicum; assay type: in vivo; settings: for MFWB/x ± SD (mean female worm burden): control 11.6 ± 2.4; for MTWB/x ± SD (mean total worm burden): control 26.6 ± 4.2
[3] = test system: Schistosoma mansoni adult schistosomes (49-day-old); assay: effect on adult schistosomes (49-day-old) in mice; assay type: in vivo; settings: for % reduction of adult worms growth at day 49 after per os application of 400 mg/kg, TWR (%) / adult worms at day 49, per os 400 mg/kg, DEAD WORM (%): single 400 mg/kg per os; for % reduction of adult worms growth at day 49 after per os application of 600 mg/kg, TWR (%) / adult worms at day 49, per os 600 mg/kg, DEAD WORM (%): single 600 mg/kg per os
Description: Mice were infected with 100 Schistosoma mansoni cercariae […]. Each group was treated per os with OZ compounds at single doses of 200, 400, and 600 mg/kg. […] All groups were killed 4 weeks after treatment and the liver and intestine were removed and separated. The liver and intestine were compressed and alive male and female worms could be seen and counted.

[4] = test system: parasitemia (malaria infection); assay: onset of action and recrudescence experiments; assay type: in vivo; settings: single 100 mg/kg po (SSV) on day +3 post-infection; recrudescence = >5% parasitemia; followed up to 60 days; (n/5) = animals
Description: The onset of drug action was determined after a single fixed dose of 100 mg/kg (SSV vehicle) po to groups of five animals on day +3 post-infection (day 0).

[5] = test system: ANKA strain of Plasmodium berghei; assay: single dose ED50/ED90/ED99 determinations in infected mice; assay type: in vivo; settings: single dose po in SSV, mice, percent reduction in parasitemia on day three post-infection
Outline: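 Mice (Moro SPF or NMRI, n=3 per group) infected with P. berghei ANKA received a single dose on day 1 post-infection, vehicle 0.5% CMC/0.5% benzyl alcohol/0.4% Tween 80/0.9% NaCl in water. Read-out is percent reduction in parasitemia on day 3; ED values by nonlinear fitting.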

[6] = test system: P. falciparum NF54 strain (sensitive to standard antimalarials); assay: semiautomated microdilution assay, [3H]-hypoxanthine incorporation, NF54 strain; assay type: cell-based, Plasmodium falciparum; settings: NF54 strain, 72 h incubation
Outline: as §1

[7] = test system: Schistosoma mansoni 21-day-old schistosomules; assay: effect on 21-day-old schistosomules in mice; assay type: in vivo; settings: single 200 mg/kg per os, female mice
Description: All groups were killed 4 weeks after treatment and the liver and intestine were removed and separated. The liver and intestine were compressed and alive male and female worms could be seen and counted. The effect of the compounds was evaluated by mean total and female worm burden.

dosing in rats = assay type: in vivo; settings: rat
Excerpt: (§2) Artesunate is listed as a reference compound.

dosing in dogs = assay type: in vivo; settings: dog
Excerpt: as §2

[8] = test system: Schistosoma mansoni adult schistosomes (49-day-old); assay: effect on adult schistosomes (49-day-old) in mice; assay type: in vivo; settings: 1 × 600 mg/kg sc.
[9] = age of worm 7 days, 200 mg/kg x 1
[10] = age of worm 35 days, 200 mg/kg x 1
[11] = age of worm 35 days, 400 mg/kg x 1

SMILES: Cc1ccc(S(=O)(=O)O)cc1.NC[C@H]1CC[C@]2(CC1)OOC1(O2)C2CC3CC(C2)CC1C3 (stereo partly drawn) [OZ207]
- IC50 (ng/ml) K1 [1]: 0.33 ng/mL
- Activity (%) po ([2]; percent reduction in parasitemia day 3 post-infection, single 10 mg/kg po in 3% ethanol and 7% Tween 80, mice): 99.96%
- Activity (%) sc ([2]; percent reduction in parasitemia day 3 post-infection, single 10 mg/kg sc in 3% ethanol and 7% Tween 80, mice): 99.98%
- Activity (%) SSVpo ([2]; percent reduction in parasitemia day 3 post-infection, single po dose in standard suspending vehicle (SSV), mice): 99.98%
- Survival (days) po ([2]; single 10 mg/kg po in 3% ethanol and 7% Tween 80, untreated control 5.6 ± 0.3): 9.3 days
- Survival (days) sc ([2]; single 10 mg/kg sc in 3% ethanol and 7% Tween 80, untreated control 5.6 ± 0.3): 11.3 days
- Survival (days) SSVpo ([2]; single po dose in SSV, untreated control 5.6 ± 0.3): 12.0 days
- Mice without ♀ worm (Schistosoma japonicum; [9]): 0/8
- MFWB/x ± SD (mean female worm burden) (Schistosoma japonicum; [9]): 2.1 ± 1.0
- MTWB/x ± SD (mean total worm burden) (Schistosoma japonicum; [9]): 5.4 ± 2.4
- FWRR/% (female worm reduction rate) (Schistosoma japonicum; [10]): 95%
- Mice without ♀ worm (Schistosoma japonicum; [10]): 4/7
- WRR/% (worm reduction rate) (Schistosoma japonicum; [10]): 66%
- MFWB/x ± SD (mean female worm burden) (Schistosoma japonicum; [10]): 0.6 ± 0.7
- MTWB/x ± SD (mean total worm burden) (Schistosoma japonicum; [10]): 9.1 ± 3.9
- FWRR/% (female worm reduction rate) (Schistosoma japonicum; [11]): 94%
- Mice without ♀ worm (Schistosoma japonicum; [11]): 4/6
- MFWB/x ± SD (mean female worm burden) (Schistosoma japonicum; [11]): 0.7 ± 1.2
- MTWB/x ± SD (mean total worm burden) (Schistosoma japonicum; [11]): 4.3 ± 1.2
- Tox (mice) ([3]; 600 mg/kg per os, infected mice): Tox: ++2/5
- % reduction of adult worms growth at day 49 after per os application of 200 mg/kg, TWR (%) ([3]; single 200 mg/kg per os): 32%
- adult worms at day 49, per os 200 mg/kg, DEAD WORM (%) ([3]; single 200 mg/kg per os): 17%
- % reduction of adult worms growth at day 49 after per os application of 400 mg/kg, TWR (%) [3]: 35%
- adult worms at day 49, per os 400 mg/kg, DEAD WORM (%) [3]: 21%
- % reduction of adult worms growth at day 49 after per os application of 600 mg/kg, TWR (%) [3]: 11%
- adult worms at day 49, per os 600 mg/kg, DEAD WORM (%) [3]: 24%
- Time of Recrudescence (days) [4]: no recrudescence
- ED50 [5]: 0.37 mg/kg
- ED90 [5]: 1.2 mg/kg
- ED99 [5]: 3.0 mg/kg
- IC50 (ng/ml) NF54 [6]: 0.57 ng/mL

SMILES: CC(C)(N)CNC(=O)C[C@H]1CC[C@]2(CC1)OO[C@]1(O2)C2CC3CC(C2)CC1C3 [OZ277]
- % reduction of schistosomule growth at day 21 after per os application of 200 mg/kg, FWR (%) [7]: 92%
- % reduction of schistosomule growth at day 21 after per os application of 200 mg/kg, TWR (%) [7]: 91%
- Activity (%) 3 mg/kg SSV po ([2]; percent reduction in parasitemia day 3 post-infection, single 3 mg/kg po in SSV): 99.28%
- Activity (%) 10 mg/kg SSV po ([2]; percent reduction in parasitemia day 3 post-infection, single 10 mg/kg po in SSV): 99.98%
- Survival (days) 10 mg/kg SSV po ([2]; single 10 mg/kg po in SSV): 9.3 days
- IV t1/2 (10 mg/kg) (dosing in rats; IV 10 mg/kg): 1.29 h
- Oral Bioavailability 10 mg/kg (dosing in rats; oral 10 mg/kg): 36.9%
- Oral Bioavailability 25 mg/kg (dosing in rats; oral 25 mg/kg): 44.1%
- Oral t1/2 (25 mg/kg) (dosing in rats; oral 25 mg/kg): 1.51 h
- % reduction of adult worms growth at day 49 after per os application of 400 mg/kg, TWR (%) [3]: 0/0%
- adult worms at day 49, per os 400 mg/kg, DEAD WORM (%) [3]: 0/0%
- % reduction of adult worms growth at day 49 after per os application of 600 mg/kg, TWR (%) [3]: 17%
- adult worms at day 49, per os 600 mg/kg, DEAD WORM (%) [3]: 14%
- Time of Recrudescence [4]: 13.0 days
- ED50 [5]: 0.78 mg/kg
- ED90 [5]: 2.0 mg/kg
- ED99 [5]: 4.4 mg/kg
- IV t1/2 (10 mg/kg) (dosing in dogs; IV 10 mg/kg): 1.58 h
- Oral t1/2 (10 mg/kg) (dosing in dogs; oral 10 mg/kg): 2.468 h
- Oral Bioavailability 10 mg/kg (dosing in dogs; oral 10 mg/kg, OZ 279, OZ 256, OZ 209 values flagged (V)): 87.9%
- Oral Bioavailability 25 mg/kg (dosing in dogs; oral 25 mg/kg, OZ 279, OZ 256, OZ 209 values flagged (V)): 96.1%
- % reduction of adult worms growth, 1 × 600 sc., TWR (%) [8]: 39%
- adult worms, 1 × 600 sc., DEAD WORM (%) [8]: 17%
